In patent US20130237415A1 (priority 2010, published 2013):
Like-named read-outs stand apart in the source and are kept apart here.

What was measured:
Fusarium graminearum [1] = format: in vivo; conditions: for % FHB Control* / FHB Area / FHB Area (% of Control) / Observed % FHB Efficacy: spring wheat; for % FHB Control*: Group A, GS 59, 100 gai/ha, relative to inoculated untreated check; for FHB Area / FHB Area (% of Control) / Observed % FHB Efficacy: Group B
Fusarium graminearum [2] = format: in vivo; conditions: for % DON Reduction: spring wheat, Group A, GS 59, 100 gai/ha, relative to inoculated untreated check; for DON Levels (% of Control) / DON Levels (ppm) / Observed % DON Efficacy: harvested spring wheat grain, Group B
Fusarium verticillioides = conditions: for F. verticilliodes disease severity (in words): safeners alone at 100 gai/ha
Experimental: Corn seeds of the Garst hybrid 86C73-3000GT were planted and grown in the greenhouse at 22° C., 12 hours of light/12 hours of dark using an experiment based on a randomized complete block (RCB) design with ten replicates.
Safeners tested were: N-(2-methoxybenzoyl)-4-[(methylaminocarbonyl)amino]benzenesulfonamide, Cyprosulfamide, and Isoxadifen, alone and in combination with Prothioconazole fungicide, were applied at the beginning of tasselling stage (GS 51-55) at rates of 100 gai/ha. Prothioconazole was tested alone at rates of 50, 100, and 200 gai/ha. Prothioconazole was tested in combination with safeners at 100 gai/ha. An additional treatment of Prothioconazole at 50 gai/ha+Isoxadifen at 100 gai/ha was included. All treatments were applied a water volume of 220 L/ha using a track sprayer. The adjuvant X-77 was included in each treatment of maize at a rate of 0.125% v/v. Untreated non-innoculated and inoculated control treatments were included within the treatment list.
Maize was inoculated with Fusarium verticillioides at flowering/silking stage (GS 61-65) by spraying conidia of F. verticillioides on the emerged silk at 1.0×10^6 conidia/mL. Treated plants where then incubated in the dark at 22° C. for 3 days in the dark at 100% R.H., followed by 6 days at 65% R.H. at 12 hour light/dark intervals at 22° C.
Maize was harvested at maturity, the weight of corn seeds per ear was recorded. Fusarium disease severity per maize ear was determined by plating a ten seeds per ear on Fusarium selective agar media. Seeds were surface sterilized with 5% sodium hypochloride for 1 minute followed by washing with sterile water for 1 minute, prior to plating on selective media. After plating, seeds were incubated in the dark at 15° C. for 10 days.

Row | Compound | % FHB Control* (Fusarium graminearum [1]) | % DON Reduction (Fusarium graminearum [2]) | F. verticilliodes disease severity (in words) (Fusarium verticillioides; maize) | FHB Area (Fusarium graminearum [1]; GS 65/69, 50 gai/ha) | FHB Area (% of Control) (Fusarium graminearum [1]; GS 65/69, 50 gai/ha) | Observed % FHB Efficacy (Fusarium graminearum [1]; GS 65/69, 50 gai/ha) | FHB Area (Fusarium graminearum [1]; GS 65/69, 100 gai/ha) | FHB Area (% of Control) (Fusarium graminearum [1]; GS 65/69, 100 gai/ha) | Observed % FHB Efficacy (Fusarium graminearum [1]; GS 65/69, 100 gai/ha) | FHB Area (Fusarium graminearum [1]; GS 65/69, 200 gai/ha) | FHB Area (% of Control) (Fusarium graminearum [1]; GS 65/69, 200 gai/ha) | Observed % FHB Efficacy (Fusarium graminearum [1]; GS 65/69, 200 gai/ha) | DON Levels (% of Control) (Fusarium graminearum [2]; GS 65/69, 50 gai/ha) | DON Levels (ppm) (Fusarium graminearum [2]; GS 65/69, 50 gai/ha) | Observed % DON Efficacy (Fusarium graminearum [2]; GS 65/69, 50 gai/ha) | DON Levels (% of Control) (Fusarium graminearum [2]; GS 65/69, 100 gai/ha) | DON Levels (ppm) (Fusarium graminearum [2]; GS 65/69, 100 gai/ha) | Observed % DON Efficacy (Fusarium graminearum [2]; GS 65/69, 100 gai/ha) | DON Levels (% of Control) (Fusarium graminearum [2]; GS 65/69, 200 gai/ha) | DON Levels (ppm) (Fusarium graminearum [2]; GS 65/69, 200 gai/ha) | also measured
1 | CNC(=O)Nc1ccc(S(=O)(=O)NC(=O)c2ccccc2OC)cc1 | 7% | 0% | greatly reduced |  |  |  |  |  |  |  |  |  |  |  |  |  |  |  |  |  | 
2 | CON(C(=O)c1cn(C)nc1C(F)F)C(C)Cc1c(Cl)cc(Cl)cc1Cl (centres unmarked) [3-difluoromethyl-1-methyl-1H-pyrazole-4-carboxylic acid methoxy-[1-methyl-2-(2,4,6-trichlorophenyl)-ethyl]-amide] |  |  |  | 8.3% | 13.7% | 86.3% | 7.5% | 12.4% | 87.6% | 7% | 11.5% | 88.5% | 25.9% | 7.084 ppm | 74.1% | 16.1% | 4.388 ppm | 83.9% | 11.7% | 3.187 ppm | Observed % DON Efficacy (Fusarium graminearum [2]; GS 65/69, 200 gai/ha): 88.3%
3 | CCCCCC(C)OC(=O)COc1ccc(Cl)c2cccnc12 (centres unmarked) [Cloqunitocet, 1-methylhexyl[(5-chloro-8-quinolinyl)oxy]acetate] | 1% | 9% |  |  |  |  |  |  |  |  |  |  |  |  |  |  |  |  |  |  | 
4 | O=C(O)C1=NOC(c2ccccc2)(c2ccccc2)C1 [Isoxadifen, 4,5-dihydro-5,5-diphenyl-3-isoxazolecarboxylic acid] | 0% | 17% | greatly reduced |  |  |  | 81.3% | 133.9% | 0.0% |  |  |  |  |  |  | 106.6% | 29.098 ppm | 0.0% |  |  | effectiveness of treatment for wheat (in words) (Fusarium graminearum [1]; wheat): Particularly effective; effectiveness of treatment for maize (in words) (Fusarium verticillioides; maize): Particularly effective
5 | Prothioconazole |  |  |  | 28.1% | 46.3% | 53.7% | 57.5% | 94.7% | 5.3% | 7.3% | 12.0% | 88.0% | 37.6% | 10.274 ppm | 62.4% | 38.3% | 10.456 ppm | 61.7% | 15.8% | 4.322 ppm | Observed % DON Efficacy (Fusarium graminearum [2]; GS 65/69, 200 gai/ha): 84.2%; Fusarium verticilliodes disease severity per maize ear (in words) (Fusarium verticillioides; treated versus untreated control maize plants): reduced disease severity
